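Briefly, cells in 96-well plates were exposed to five compound concentrations for 48 h, and endpoints were estimated by linear interpolation. TGI denotes the concentration required for complete inhibition of growth.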
Assays:
Assay in all cases: NCI tumour cell line growth inhibition, 48 h
786-0 renal = tested on: 786-0 renal
A498 renal = tested on: A498 renal
A549 NSCLC = tested on: A549 NSCLC
ACHN renal = tested on: ACHN renal
CAKI-1 renal = tested on: CAKI-1 renal
CCRF-CEM leukemia = tested on: CCRF-CEM leukemia
COLO 205 colon = tested on: COLO 205 colon
DMS 114 small cell lung = tested on: DMS 114 small cell lung
DMS 273 small cell lung = tested on: DMS 273 small cell lung
EKVX NSCLC = tested on: EKVX NSCLC
HCC-2998 colon = tested on: HCC-2998 colon
HCT-116 colon = tested on: HCT-116 colon
HCT-15 colon = tested on: HCT-15 colon
HL-60(TB) leukemia = tested on: HL-60(TB) leukemia
HOP-18 NSCLC = tested on: HOP-18 NSCLC
HOP-62 NSCLC = tested on: HOP-62 NSCLC
HT29 colon = tested on: HT29 colon
IGROV1 ovarian = tested on: IGROV1 ovarian
K-562 leukemia = tested on: K-562 leukemia
KM12 colon = tested on: KM12 colon
KM20L2 colon = tested on: KM20L2 colon
LOX IMVI melanoma = tested on: LOX IMVI melanoma
LXFL 529 NSCLC = tested on: LXFL 529 NSCLC
M14 melanoma = tested on: M14 melanoma
MALME-3M melanoma = tested on: MALME-3M melanoma
MOLT-4 leukemia = tested on: MOLT-4 leukemia
NCI-H226 lung = tested on: NCI-H226 lung
NCI-H23 lung = tested on: NCI-H23 lung
NCI-H460 lung = tested on: NCI-H460 lung
NCI-H522 lung = tested on: NCI-H522 lung
OVCAR-3 ovarian = tested on: OVCAR-3 ovarian
OVCAR-4 ovarian = tested on: OVCAR-4 ovarian
OVCAR-5 ovarian = tested on: OVCAR-5 ovarian
OVCAR-8 ovarian = tested on: OVCAR-8 ovarian
RPMI-8226 leukemia = tested on: RPMI-8226 leukemia
RXF 393 renal = tested on: RXF 393 renal
RXF-631 renal = tested on: RXF-631 renal
SF-268 CNS = tested on: SF-268 CNS
SF-295 CNS = tested on: SF-295 CNS
SF-539 CNS = tested on: SF-539 CNS
SK-MEL-2 melanoma = tested on: SK-MEL-2 melanoma
SK-MEL-5 melanoma = tested on: SK-MEL-5 melanoma
SK-OV-3 ovarian = tested on: SK-OV-3 ovarian
SN12C renal = tested on: SN12C renal
SNB-19 CNS = tested on: SNB-19 CNS
SNB-75 CNS = tested on: SNB-75 CNS
SNB-78 CNS = tested on: SNB-78 CNS
SW-620 colon = tested on: SW-620 colon
TK-10 renal = tested on: TK-10 renal
U251 CNS = tested on: U251 CNS
UACC-257 melanoma = tested on: UACC-257 melanoma
UACC-62 melanoma = tested on: UACC-62 melanoma
UO-31 renal = tested on: UO-31 renal

`CC1(C)C2CCC13C(=O)C1OC3(C2)C2C(=O)N(c3ccccc3)C(=O)C12` (stereo not drawn) gave a TGI (786-0 renal) greater than 100 µM, a TGI (A498 renal) greater than 100 µM and a TGI (A549 NSCLC) greater than 100 µM. The TGI (ACHN renal) was greater than 100 µM, the TGI (CAKI-1 renal) was greater than 100 µM and the TGI (CCRF-CEM leukemia) was greater than 100 µM. It also gave a TGI (COLO 205 colon) greater than 100 µM, a TGI (DMS 114 small cell lung) greater than 100 µM and a TGI (DMS 273 small cell lung) greater than 100 µM. The TGI (EKVX NSCLC) was greater than 100 µM, the TGI (HCC-2998 colon) was greater than 100 µM and the TGI (HCT-116 colon) was greater than 100 µM. The TGI (HCT-15 colon) was greater than 100 µM, the TGI (HL-60(TB) leukemia) was greater than 100 µM and the TGI (HOP-18 NSCLC) was greater than 100 µM. It also gave a TGI (HOP-62 NSCLC) greater than 100 µM, a TGI (HT29 colon) greater than 100 µM and a TGI (IGROV1 ovarian) greater than 100 µM. It also gave a TGI (K-562 leukemia) greater than 100 µM, a TGI (KM12 colon) greater than 100 µM and a TGI (KM20L2 colon) greater than 100 µM. It also gave a TGI (LOX IMVI melanoma) greater than 100 µM, a TGI (LXFL 529 NSCLC) greater than 100 µM and a TGI (M14 melanoma) greater than 100 µM. For the same molecule, the TGI (MALME-3M melanoma) was greater than 100 µM, the TGI (MOLT-4 leukemia) was greater than 100 µM and the TGI (NCI-H226 lung) was greater than 100 µM. It also gave a TGI (NCI-H23 lung) greater than 100 µM, a TGI (NCI-H460 lung) greater than 100 µM and a TGI (NCI-H522 lung) of 49.1 µM. It also gave a TGI (OVCAR-3 ovarian) greater than 100 µM, a TGI (OVCAR-4 ovarian) greater than 100 µM and a TGI (OVCAR-5 ovarian) greater than 100 µM. It also gave a TGI (OVCAR-8 ovarian) greater than 100 µM, a TGI (RPMI-8226 leukemia) greater than 100 µM and a TGI (RXF 393 renal) greater than 100 µM. For the same molecule, the TGI (RXF-631 renal) was greater than 100 µM, the TGI (SF-268 CNS) was greater than 100 µM and the TGI (SF-295 CNS) was greater than 100 µM. For the same molecule, the TGI (SF-539 CNS) was greater than 100 µM, the TGI (SK-MEL-2 melanoma) was greater than 100 µM and the TGI (SK-MEL-5 melanoma) was greater than 100 µM. For the same molecule, the TGI (SK-OV-3 ovarian) was greater than 100 µM, the TGI (SN12C renal) was greater than 100 µM and the TGI (SNB-19 CNS) was greater than 100 µM. For the same molecule, the TGI (SNB-75 CNS) was greater than 100 µM, the TGI (SNB-78 CNS) was greater than 100 µM and the TGI (SW-620 colon) was greater than 100 µM. For the same molecule, the TGI (TK-10 renal) was greater than 100 µM, the TGI (U251 CNS) was greater than 100 µM and the TGI (UACC-257 melanoma) was greater than 100 µM. It also gave a TGI (UACC-62 melanoma) greater than 100 µM and a TGI (UO-31 renal) greater than 100 µM.

From PubChem BioAssay (NCI)
